One test concerns soluble epoxide hydrolase (sEH). The experiment in a line: Fluorescent assay for soluble epoxide hydrolase (CMNPC substrate), percent inhibition at the recited concentration. The format is biochemical. The note with it: Inhibition Conc. 50 nM. An excerpt:
Fluorescent Assay for Mouse and Human Soluble Epoxide Hydrolase Recombinant mouse sEH (MsEH) and human sEH (HsEH) were produced in a baculovirus expression system as previously reported. Grant et al., J. Biol. Chem., 268:17628-17633 (1993); Beetham et al., Arch. Biochem. Biophys., 305:197-201 (1993). The expressed proteins were purified from cell lysate by affinity chromatography. Wixtrom et al., Anal. Biochem., 169:71-80 (1988). Protein concentration was quantified using the Pierce BCA assay using bovine serum albumin as the calibrating standard. The preparations were at least 97% pure as judged by SDS-PAGE and scanning densitometry. They contained no detectable esterase or glutathione transferase activity which can interfere with the assay. The assay was also evaluated with similar results in crude cell lysates or homogenate of tissues. The IC50s for each inhibitor were determined according to the following procedure: […] Jones P. D. et al.; Analytical Biochemistry 2005; 343: pp. 66-75) Bis/Tris HCl 25 mM pH 7.0 containing 0.1 mg/mL of BSA (buffer […] at 0.25 mM in DMSO. Mother solution of enzyme in buffer A (Mouse sEH at 6 μg/mL and Human sEH at 5 μg/mL). Inhibitor dissolved in DMSO at the appropriate concentration. In a black 96 well plate, fill all the wells with 150 μL of buffer A. Add 2 μL of DMSO in well A2 and A3, and then add 2 μL of inhibitor solution in A1 and A4 through A12. Add 150 μL of buffer A in row A, then mix several time and transfer 150 μL to row B. Repeat this operation up to row H. The 150 μL removed from row H is discarded. Add 20 μL of buffer A in column 1 and 2, then add 20 μL of enzyme solution to column 3 to 12. Incubate the plate for 5 minutes in the plate reader at 30° C. During incubation prepare the working solution of substrate by mixing 3.68 mL of buffer A (4×0.920 mL) with 266 μL (2×133 μL) of substrate solution). At t=0, add 30 μL of working substrate solution with multi-channel pipette labeled “Briggs 303” and start the reading ([S]final: 5 μM). Read with ex: 330 nm (20 nm) and em: 465 nm (20 nm) every 30 second for 10 minutes. The velocities are used to analyze and calculate the IC50s. Tables 1-7 above provide the percent inhibition of the enzyme when tested at the concentration recited therein.
`O=C(NC1CCN(S(=O)(=O)c2ccc(-c3ccccc3)cc2)CC1)NC12CC3CC(CC(C3)C1)C2` [Compound 7-24, 1-(1-(biphenyl-4-ylsulfonyl)piperidin-4-yl)-3-adamantylurea]: the “% inh.” value was found to be 96%.
Same read-out and setting: to `Cc1c(Cl)cccc1S(=O)(=O)N1CCC(NC(=O)NC23CC4CC(CC(C4)C2)C3)CC1` [Compound 7-34, 1-(1-(3-chloro-2-methylphenylsulfonyl)piperidin-4-yl)-3-adamantylurea] belongs 91%.
Turning to `O=C(NC1CCN(S(=O)(=O)c2cccs2)CC1)NC12CC3CC(CC(C3)C1)C2` [Compound 7-28, 1-adamantyl-3-(1-(thiophen-2-ylsulfonyl)piperidin-4-yl)urea], the “% inh.” value amounted to 94%.
As to `CC(=O)N1CCC(NC(=O)NC2CC3CCC2C3)CC1` (stereo not shown) [Compound 7-7, 1-(1-acetylpiperidin-4-yl)-3-(bicyclo[2.2.1]heptan-2-yl)urea], the “% inh.” value is listed as 88%.
On to `O=C(NC1CCN(S(=O)(=O)c2ccc(Cl)c(Cl)c2)CC1)NC12CC3CC(CC(C3)C1)C2` [Compound 7-37], for which the “% inh.” value amounted to 100%.
With `CC(C)(C)OC(=O)N1CCC(NC(=O)Nc2ccc(S(=O)(=O)N3CCOCC3)cc2)CC1` [Compound 5-1, tert-butyl 4-(3-(4-(morpholinosulfonyl)-phenyl)ureido)-piperidine-1-carboxylate], the “% inh.” value was determined as 80%.
Turning to `NS(=O)(=O)c1ccc(C(=O)N2CCC(NC(=O)Nc3ccc(C(F)(F)F)cc3)CC2)cc1` [Compound 4-1, 4-(4-(3-(4-(trifluoromethyl)phenyl)ureido)piperidine-1-carbonyl)benzene-sulfonamide], the “% inh.” value worked out at 90%.
`CN(C)C(=O)N1CCC(NC(=O)Nc2ccc(C(F)(F)F)cc2)CC1` [Compound 7-21, N,N-dimethyl-4-(3-(4-(trifluoromethyl)phenyl)-ureido)piperidine-1-carboxamide]: the “% inh.” value was found to be 86%.
For the compound `CNS(=O)(=O)c1cccc(C(=O)N2CCC(NC(=O)NC34CC5CC(CC(C5)C3)C4)CC2)c1` [Compound 4-5, 3-(4-(3-(1-adamantyl)ureido)-piperidine-1-carbonyl)-N-methylbenzene-sulfonamide], the “% inh.” value stood at 99%.
Same read-out and setting: to `CC(C)OC(=O)N1CCC(NC(=O)Nc2ccc(OC(F)(F)F)cc2)CC1` [Compound 7-22, isopropyl 4-(3-(4-(trifluoromethoxy)phenyl)ureido)piperidine-1-carboxylate] belongs 99%.
On the same count and under the same terms, to `CC(C)(C)OC(=O)N1CCC(NC(=O)Nc2ccc3c(c2)CCC3)CC1` [Compound 6-5, tert-butyl 4-(3-(2,3-dihydro-1H-inden-5-yl)ureido)-piperidine-1-carboxylate] belongs 92%; to `O=C(NC1CCN(C(=O)c2ccc(Cl)cc2)CC1)NC12CC3CC(CC(C3)C1)C2` [Compound 7-46, 1-(1-(4-chlorobenzoyl)piperidin-4-yl)-3-adamantylurea], 96%; to `O=C(Nc1ccc(C(F)(F)F)cc1)NC1CCN(c2ccc(C(F)(F)F)cn2)CC1` [Compound 2-1], 13%.

Staying with this test, now noted: Inhibition Conc. 200 nM.
With `CC(C)(C)OC(=O)N1CCC(NC(=O)NC2CCCCCCC2)CC1` [Compound 7-64, tert-butyl 4-(3-cyclooctylureido)piperidine-1-carboxylate], the “% inh.” value was 97%.
On to `O=C(NC1CCN(C(=O)NC23CC4CC(CC(C4)C2)C3)CC1)NC12CC3CC(CC(C3)C1)C2` [Compound 7-56, N-adamantyl-4-(3-adamantylureido)piperidine-1-carboxamide], for which the “% inh.” value is given as 86%.
`O=C(NC1CCN(C(=O)N2CCOCC2)CC1)NC12CC3CC(CC(C3)C1)C2` [Compound 7-82, 1-adamantyl-3-(1-(morpholine-4-carbonyl)piperidin-4-yl)urea]: the “% inh.” value was 95%.
Still for that read-out and setting: to `O=C(Nc1ccc(OC(F)(F)F)cc1)NC1CCN(S(=O)(=O)CCCO)CC1` [Compound 7-75, 1-(1-(3-hydroxypropylsulfonyl)piperidin-4-yl)-3-(4-(trifluoromethoxy)phenyl)urea] belongs 100%.
Turning to `CC(C)(C)OC(=O)N1CCC(NC(=O)NC2CCC2)CC1` [Compound 7-50, tert-butyl 4-(3-cyclobutylureido)piperidine-1-carboxylate], the “% inh.” value was found to be 76%.
On to `CC(C)(C)S(=O)(=O)N1CCC(NC(=O)Nc2ccc(OC(F)(F)F)cc2)CC1` [Compound 7-77, 1-(1-(tert-butylsulfonyl)piperidin-4-yl)-3-(4-(trifluoromethoxy)phenyl)urea], for which the “% inh.” value stood at 99%.
Take `O=C(Nc1ccc(OC(F)(F)F)cc1)NC1CCN(C(=O)CCCO)CC1` [Compound 7-71, 1-(1-(4-hydroxybutanoyl)piperidin-4-yl)-3-(4-(trifluoromethoxy)phenyl)urea]: the “% inh.” value amounted to 84%.
Turning to `Cc1nc2ccc(NC(=O)NC3CCN(C(=O)OC(C)(C)C)CC3)cc2s1` [Compound 6-14, tert-butyl 4-(3-(2-methylbenzo[d]thiazol-6-yl)ureido)piperidine-1-carboxylate], the “% inh.” value was determined as 77%.
As to `CC(C)(C)CC(=O)N1CCC(NC(=O)NC23CC4CC(CC(C4)C2)C3)CC1` [Compound 7-72, 1-adamantyl-3-(1-(3,3-dimethylbutanoyl)piperidin-4-yl)urea], the “% inh.” value stood at 96%.

The test is the same for the next values; noted with them: Inhibition Conc. 500 nM.
In the case of `CNS(=O)(=O)c1cccc(C(=O)N2CCC(NC(=O)Cc3ccc(Cl)cc3)CC2)c1` [Compound 7-85, 2-(4-chlorophenyl)-N-(1-(3-(N-methyl-sulfamoyl)benzoyl)-piperidin-4-yl)acetamide], the “% inh.” value turned out to be 73%.
Still for that read-out and setting: with `CC(=O)N1CCC(NC(=O)Nc2ccc3c(c2)CCC3)CC1` [Compound 6-6, 1-(1-acetyl-piperidin-4-yl)-3-(2,3-dihydro-1H-inden-5-yl)urea] the figure was 93%; with `O=C(Nc1ccc(C(F)(F)F)cc1)NC1CCN(c2ncccc2C(=O)O)CC1` [Compound 2-7], 64%; with `CC(=O)N1CCC(NC(=O)NC2CCCCC2)CC1` [Compound 7-43, 1-(1-acetylpiperidin-4-yl)-3-cyclohexylurea], 86%.
Take `CC(C)(C)OC(=O)N1CCC(NC(=O)NC2CCCC2)CC1` [Compound 7-17, tert-butyl 4-(3-cyclopentylureido)-piperidine-1-carboxylate]: the “% inh.” value is recorded as 85%.
With `CC(=O)N1CCC(NC(=O)NCC2CCCCC2)CC1` [Compound 1-2, 1-(1-acetylpiperidin-4-yl)-3-(cyclo-hexylmethyl)urea], the “% inh.” value is listed as 92%.

The test is the same for the next values; noted with them: Inhibition Conc. 2000 nM.
On to `COC(=O)c1ccc(NC(=O)NC2CCN(C(=O)OC(C)(C)C)CC2)cc1` [Compound 7-67, tert-butyl 4-(3-(4-(methoxycarbonyl)phenyl)ureido)piperidine-1-carboxylate], for which the “% inh.” value is on record as 96%.
On the same count and under the same terms, to `O=C(Nc1ccc(OC(F)(F)F)cc1)NC1CCN(c2ccccc2)CC1` [Compound 2-9, 1-(1-phenylpiperidin-4-yl)-3-(4-(trifluoromethoxy)phenyl)urea] belongs 99%; to `CC(C)(C)OC(=O)N1CCC(NC(=O)Nc2ccc(N3CCOCC3)cc2)CC1` [Compound 7-86, tert-butyl 4-(3-(4-morpholinophenyl)ureido)piperidine-1-carboxylate], 90%.
The same measure, in the same setting: to `CC(=O)N1CCC(NC(=O)NC2CCN(C)CC2)CC1` [Compound 8-3, 1-(1-acetylpiperidin-4-yl)-3-(1-methylpiperidin-4-yl)urea] belongs 0%.
`CC(=O)N1CCC(NC(=O)Nc2ccc(C(=O)O)cc2)CC1` [Compound 7-53, 4-(3-(1-acetylpiperidin-4-yl)ureido)benzoic acid]: the “% inh.” value is reported as 17%.
On to `COC(=O)c1ccc(NC(=O)NC2CCN(C(C)=O)CC2)s1` [Compound 6-16, methyl 5-(3-(1-acetylpiperidin-4-yl)ureido)thiophene-2-carboxylate], for which the “% inh.” value is 78%.
For `COc1ccc(NC(=O)NC2CCN(C(C)=O)CC2)cn1` [Compound 6-11, 1-(1-acetylpiperidin-4-yl)-3-(6-methoxypyridin-3-yl)urea], the “% inh.” value came out at 44%.
Take `COC(=O)c1ccc(NC(=O)NC2CCN(C(C)=O)CC2)cc1` [Compound 7-69, methyl 4-(3-(1-acetylpiperidin-4-yl)ureido)benzoate]: the “% inh.” value is 69%.

The same test, now with this note: Inhibition Conc. 5000 nM.
Consider `CC(=O)N1CCC(NC(=O)Nc2ccc(-c3nnn[nH]3)cc2)CC1` [Compound 6-9, 1-(4-(1H-tetrazol-5-yl)phenyl)-3-(1-acetylpiperidin-4-yl)urea], for which the “% inh.” value is given as 84%.

Values taken from patent US20080227780A1, “SOLUBLE EPOXIDE HYDROLASE INHIBITORS” (Arete Therapeutics, Inc., priority 2007, published 2008).
